# Assay results taken from patent US7601687B2, “Mechanism for identifying drugs for the treatment of type II diabetes” (BioCrine AB, priority 2006, dated 2009).
# Key:
# PKB/c-Akt = PKB/c-Akt Ser473 phosphorylation and PKB activity in HIT cells; assay type: cell-based, hamster
# Description: Phosphorylated PKB/c-Akt was analyzed by employing the PhosphoPlus Akt(Ser473) Antibody Kit (New England Biolabs) according to the manufacturer's instructions. Briefly, HIT cells were cultured as described above. […] Following centrifugation of the lysate for 20 min at 14,000×g and 4° C., aliquotes of the supernatant containing 200 μg protein were separated by SDS-PAGE over a 7.5% polyacrylamide gel. Proteins were electro-transferred onto PVDF-membrane (Immobilon-P, Millipore) overnight at stabilized 125 mA. Immunoblotting was performed with either rabbit polyclonal Phospho-Akt(Ser473) antibody or with rabbit polyclonal […] antibody and HRP-conjugated secondary antibodies. For detection the membrane was incubated with LumiGLO containing peroxide and exposed to X-ray film.
# Analysis of PKB/Akt activity was performed employing the Akt1-PKBα e Immunoprecipitation Kinase Assay Kit (Upstate Biotech.) according to the manufacturer's instructions. Lysates of HIT cells containing 1 mg of protein were subjected to immunoprecipitation. The immunoprecipitate was used for PKB/Akt kinase assay using γ[^32P]-ATP and Akt/SGK-specific substrate peptide. Phosphorylated substrates were blotted onto phosphocellulose P81 paper and analyzed by LSC.
# rat βGK promoter = experiment: βGK promoter-driven GFP expression in co-transfected human islet cells; assay type: cell-based; details: 5 mU/ml insulin for 5 min, sub-stimulatory glucose
# Description: (§1) Data are presented as the ratio of fluorescence obtained at minutes 240 and 60 and represent mean values ±S.E. (n=11).
# (§2) Detection of fluorescence by digital imaging fluorescence microscopy was performed as described previously (Leibiger et al., 1998a; Leibiger et al., 1998b). Briefly, transfected cells were grown on 24-mm glass coverslips. After stimulation the coverslips were placed into a perifusion chamber which was mounted on an inverted microscope (Zeiss Axiovert 135TV). Temperature was kept at 37° C. and the cells were perfused with RPMI 1640 medium. The objective lens used was a Zeiss-Fluar ×40/1.30 oil Imm Korr. Fluorescence imaging was performed with a cooled charged-coupled device camera (CH250 with KAF 1400, Photometrics, Tucson, Ariz.) connected to an imaging system (Inovision) with fluorescence excitation from a SPEX fluorolog-2 CM1T11I spectrofluorometer (Spex Industries). […]
# (§3) On-line monitoring was initiated 60 min following the start of stimulation and the 60-min value of GFP- or DsRed-fluorescence was set to 1.0. Cells to be monitored were chosen randomly at minute 60 from six fields of vision and fluorescence was monitored up to minute 240. By overlaying the fluorescence and phase-contrast images, the position of cells on the coverslip could be checked. Fluorescence intensity was calculated by using the ISee-software for UNIX (Inovision Corporation).
# rat insulin-I promoter = experiment: Insulin promoter-driven DsRed expression in co-transfected human islet cells; assay type: cell-based
# Description: as §1, §2, §3
molecule,measurement,setting,value
CC(=O)OCOC(c1ccc2ccccc2c1)P(=O)(OCOC(C)=O)OCOC(C)=O (centres unmarked) [HNMPA-(AM)3],effect on glucose-induced activation of PKB,"PKB/c-Akt; FIG. 7E, PKB activity 10 min after start of glucose stimulation",abolished
insulin,βGK promoter-driven GFP expression upon insulin stimulation,rat βGK promoter,up-regulation
same,insulin promoter-driven DsRed expression upon insulin stimulation,"rat insulin-I promoter; 5 mU/ml insulin for 5 min, sub-stimulatory glucose",up-regulation
same,time following stimulation at which PKB activation (Ser473 phosphorylation) was observed,PKB/c-Akt; 16.7 mM glucose or 5 mU insulin/ml at substimulatory glucose,2 min
autocamtide-2 related inhibitory peptide,effect of inhibitor on insulin-stimulated insulin gene expression,"rat insulin-I promoter; 400 nM AC, 10 nM rapamycin, low concentrations: 50 nM wortmannin, 25 μM LY 294002 (FIG. 15)",sensitive
